Assays:
PERK = PERK (Homo sapiens (Human), UniProt Q9NZJ5); experiment: PERK cellular assay (TR-FRET, HEK293-EGFP-eIF2α cells, tunicamycin-induced ER stress); format: cell-based; conditions: tunicamycin 2 hours, read-out: Cellular IC50 (μM) (EIF2a)
Procedure, shortened: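 After 2 h tunicamycin ([…]) stress following 30 min compound pretreatment at 37 °C, lysed HEK293-EGFP-eIF2α cells were read by TR-FRET. IC50 derived by 4-parameter logistic fitting of percent inhibition, DMSO-normalized, from 10-point 3-fold dilutions.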

[1] = biological target: EIF2AK3 (PERK) catalytic domain (amino acids 536-1116) (Homo sapiens (Human), UniProt Q9NZJ5); experiment: PERK in vitro activity assay (isolated), TR-FRET kinase assay; conditions: isolated PERK enzyme, 1.5 μM ATP, GFP-eIF2a substrate; read-out: Biochemical IC50
Chain of EIF2AK3 (PERK) catalytic domain (amino acids 536-1116) (Q9NZJ5 536-1116): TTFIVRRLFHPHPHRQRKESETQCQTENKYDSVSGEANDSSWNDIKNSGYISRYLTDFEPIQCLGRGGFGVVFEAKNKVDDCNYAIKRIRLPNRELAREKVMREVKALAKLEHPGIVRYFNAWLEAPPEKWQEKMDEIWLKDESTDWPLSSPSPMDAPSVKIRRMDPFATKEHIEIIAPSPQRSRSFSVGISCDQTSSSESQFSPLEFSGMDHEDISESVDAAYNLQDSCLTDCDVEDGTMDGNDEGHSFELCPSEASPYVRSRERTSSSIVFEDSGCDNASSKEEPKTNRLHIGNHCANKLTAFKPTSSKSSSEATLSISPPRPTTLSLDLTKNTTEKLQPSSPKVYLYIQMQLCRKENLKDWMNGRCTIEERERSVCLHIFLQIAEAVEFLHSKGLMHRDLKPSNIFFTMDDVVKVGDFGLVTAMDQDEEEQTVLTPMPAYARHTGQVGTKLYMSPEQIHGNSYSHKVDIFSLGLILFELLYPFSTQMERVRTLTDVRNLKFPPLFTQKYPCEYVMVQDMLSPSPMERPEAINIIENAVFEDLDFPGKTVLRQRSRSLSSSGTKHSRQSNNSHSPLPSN
Procedure, shortened: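 Human PERK catalytic domain (aa 536-1116) with 100-200 nM GFP-eIF2a in 50 mM HEPES pH 7.5, 10 mM MgCl2, 1.0 mM EGTA, 0.01% Brij-35; enzyme-started reaction run 45 min at room temperature. Stopped with 10 mM EDTA, 2 nM Tb-anti-phospho-eIF2a added for 90 min; IC50 from TR-FRET ratio by 4-parameter logistic fit.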

Chain of PERK (Q9NZJ5 30-1116): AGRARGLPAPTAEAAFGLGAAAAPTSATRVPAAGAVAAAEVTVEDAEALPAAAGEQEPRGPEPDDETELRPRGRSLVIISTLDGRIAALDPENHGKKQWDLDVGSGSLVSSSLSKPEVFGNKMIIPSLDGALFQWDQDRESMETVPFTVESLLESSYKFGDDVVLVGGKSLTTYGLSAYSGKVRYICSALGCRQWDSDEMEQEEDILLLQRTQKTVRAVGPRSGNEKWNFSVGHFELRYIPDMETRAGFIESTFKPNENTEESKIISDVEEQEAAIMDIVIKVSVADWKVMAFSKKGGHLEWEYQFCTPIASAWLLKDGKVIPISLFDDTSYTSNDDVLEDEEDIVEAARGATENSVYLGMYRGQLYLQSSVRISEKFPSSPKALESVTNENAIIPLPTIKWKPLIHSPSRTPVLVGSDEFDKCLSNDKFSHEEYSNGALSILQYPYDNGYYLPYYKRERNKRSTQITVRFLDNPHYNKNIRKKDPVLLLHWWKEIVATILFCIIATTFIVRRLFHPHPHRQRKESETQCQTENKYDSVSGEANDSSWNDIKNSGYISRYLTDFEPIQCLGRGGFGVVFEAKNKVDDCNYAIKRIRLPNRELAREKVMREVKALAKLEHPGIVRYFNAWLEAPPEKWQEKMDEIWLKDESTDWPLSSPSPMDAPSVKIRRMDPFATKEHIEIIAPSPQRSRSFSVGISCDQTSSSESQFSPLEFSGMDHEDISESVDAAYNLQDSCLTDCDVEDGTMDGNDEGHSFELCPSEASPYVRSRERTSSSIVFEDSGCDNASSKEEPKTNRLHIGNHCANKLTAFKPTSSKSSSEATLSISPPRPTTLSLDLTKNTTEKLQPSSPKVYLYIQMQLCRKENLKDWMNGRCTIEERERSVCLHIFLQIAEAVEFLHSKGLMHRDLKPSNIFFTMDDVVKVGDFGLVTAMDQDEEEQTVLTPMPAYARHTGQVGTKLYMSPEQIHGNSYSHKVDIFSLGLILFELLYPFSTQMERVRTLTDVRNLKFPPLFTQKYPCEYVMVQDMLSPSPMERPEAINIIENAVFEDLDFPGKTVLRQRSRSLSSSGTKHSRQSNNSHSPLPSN

SMILES	IC50 (PERK)	IC50 [1]
Cc1cc(NC(=O)CC2CC2)ccc1-c1cnc(N)c(C(=O)NC(C)C)c1 [Example 213, 2-amino-5-(4-(2-cyclopropyl-acetamido)-2-methylphenyl)-N-isopropylnicotinamide]	> 5 µM	1000 to 2000 nM
Cc1cc(NC(=O)CC2CCC2)ccc1-c1cnc(N)c(C(=O)NC(C)C)c1 [Example 214, 2-amino-5-(4-(2-cyclobutylacetamido)-2-methylphenyl)-N-isopropylnicotinamide]	> 5 µM	251 to 500 nM
Cc1cc(NC(=O)CC2CCCCC2)ccc1-c1cnc(N)c(C(=O)NC(C)C)c1 [Example 216, 2-amino-5-(4-(2-cyclohexylacetamido)-2-methylphenyl)-N-isopropylnicotinamide]	> 5 µM	1000 to 2000 nM
Cc1cc(NC(=O)c2ccccc2)ccc1-c1cnc(N)c(C(=O)NC(C)C)c1 [Example 217, 2-amino-5-(4-benzamido-2-methylphenyl)-N-isopropylnicotinamide]	0.501 to 1 µM	> 5000 nM
Cc1cc(NC(=O)Oc2ccccc2)ccc1-c1cnc(N)c(C(=O)NC(C)C)c1 [Example 219, phenyl (4-(6-amino-5-(isopropylcarbamoyl)pyridin-3-yl)-3-methylphenyl)carbamate]	1 to 2 µM	1000 to 2000 nM

The next lines start with the values.

IC50 (PERK)	IC50 [1]	SMILES
1 to 2 µM	101 to 250 nM	Cc1cc(NC(=O)Cc2ccc3ncccc3c2)ccc1-c1cnc(N)c(C(=O)NC(C)C)c1 [Example 209, 2-amino-N-isopropyl-5-(2-methyl-4-(2-(quinolin-6-yl)acetamido)phenyl)nicotinamide]
1 to 2 µM	51 to 100 nM	Cc1cc(NC(=O)Cc2cncc3ccccc23)ccc1-c1cnc(N)c(C(=O)NC(C)C)c1 [Example 210, 2-amino-N-isopropyl-5-(4-(2-(isoquinolin-4-yl)acetamido)-2-methylphenyl) nicotinamide]
2 to 3 µM	251 to 500 nM	Cc1cc(NC(=O)Cc2cccc3cnccc23)ccc1-c1cnc(N)c(C(=O)NC(C)C)c1 [Example 211, 2-amino-N-isopropyl-5-(4-(2-(isoquinolin-5-yl)acetamido)-2-methylphenyl) nicotinamide]
> 5 µM	1000 to 2000 nM	Cc1cc(NC(=O)Cc2cccc3ncccc23)ccc1-c1cnc(N)c(C(=O)NC(C)C)c1 [Example 212, 2-amino-N-isopropyl-5-(2-methyl-4-(2-(quinolin-5-yl)acetamido)phenyl)nicotinamide]
> 5 µM	> 5000 nM	Cc1cc(NC(=O)CC2CCCC2)ccc1-c1cnc(N)c(C(=O)NC(C)C)c1 [Example 215, 2-amino-5-(4-(2-cyclopentylacetamido)-2-methylphenyl)-N-isopropylnicotinamide]
> 5 µM	1000 to 2000 nM	Cc1cc(NC(=O)N(C)c2ccccc2)ccc1-c1cnc(N)c(C(=O)NC(C)C)c1 [Example 218, 2-amino-N-isopropyl-5-(2-methyl-4-(3-methyl-3-phenylureido)phenyl)nicotinamide]
